Values quoted from earlier work in patent US20180344730A1, “MEDICAMENT FOR TREATING MENTAL AND BEHAVIOURAL DISORDERS” (Sumitomo Dainippon Pharma Co., Ltd., priority 2012, published 2018).

Columns and labels:
dopamine D2 receptors = dopamine D2 receptors (Homo sapiens, UniProt P14416)
[1] = biological target: T1, serotonin 5-HT1A receptors (Homo sapiens, UniProt P08908)
T1 sequence (P08908 1-422): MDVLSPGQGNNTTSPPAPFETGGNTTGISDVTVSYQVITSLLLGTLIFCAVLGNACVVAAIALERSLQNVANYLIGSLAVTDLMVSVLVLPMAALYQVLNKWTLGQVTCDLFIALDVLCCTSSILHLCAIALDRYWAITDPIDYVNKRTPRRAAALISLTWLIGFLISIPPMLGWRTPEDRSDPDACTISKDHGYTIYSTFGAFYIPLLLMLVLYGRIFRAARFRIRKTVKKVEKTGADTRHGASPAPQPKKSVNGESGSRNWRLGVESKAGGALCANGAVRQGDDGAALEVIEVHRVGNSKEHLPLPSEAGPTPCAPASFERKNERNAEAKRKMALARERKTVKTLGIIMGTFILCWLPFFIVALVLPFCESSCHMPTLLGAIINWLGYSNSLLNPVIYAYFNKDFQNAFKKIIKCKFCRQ

[2] = biological target: serotonin 5-HT2A receptors (Homo sapiens, UniProt P28223)
serotonin 5-HT2A receptors, sequence (P28223 whole entry): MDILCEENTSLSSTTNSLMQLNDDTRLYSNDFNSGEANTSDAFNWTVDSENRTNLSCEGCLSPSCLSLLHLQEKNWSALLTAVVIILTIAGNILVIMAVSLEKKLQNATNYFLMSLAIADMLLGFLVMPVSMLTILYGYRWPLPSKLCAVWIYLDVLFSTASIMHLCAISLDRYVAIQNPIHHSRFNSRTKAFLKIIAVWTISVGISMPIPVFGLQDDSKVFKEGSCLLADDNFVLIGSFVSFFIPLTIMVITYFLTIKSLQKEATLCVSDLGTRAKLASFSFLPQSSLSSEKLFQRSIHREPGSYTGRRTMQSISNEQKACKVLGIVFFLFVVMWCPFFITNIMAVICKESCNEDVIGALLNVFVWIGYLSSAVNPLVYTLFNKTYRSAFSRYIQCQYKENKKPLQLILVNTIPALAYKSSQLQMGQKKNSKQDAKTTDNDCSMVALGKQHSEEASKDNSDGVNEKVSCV

[3] = biological target: serotonin 5-HT7 receptors (Homo sapiens, UniProt P34969)
serotonin 5-HT7 receptors, sequence (P34969 whole entry): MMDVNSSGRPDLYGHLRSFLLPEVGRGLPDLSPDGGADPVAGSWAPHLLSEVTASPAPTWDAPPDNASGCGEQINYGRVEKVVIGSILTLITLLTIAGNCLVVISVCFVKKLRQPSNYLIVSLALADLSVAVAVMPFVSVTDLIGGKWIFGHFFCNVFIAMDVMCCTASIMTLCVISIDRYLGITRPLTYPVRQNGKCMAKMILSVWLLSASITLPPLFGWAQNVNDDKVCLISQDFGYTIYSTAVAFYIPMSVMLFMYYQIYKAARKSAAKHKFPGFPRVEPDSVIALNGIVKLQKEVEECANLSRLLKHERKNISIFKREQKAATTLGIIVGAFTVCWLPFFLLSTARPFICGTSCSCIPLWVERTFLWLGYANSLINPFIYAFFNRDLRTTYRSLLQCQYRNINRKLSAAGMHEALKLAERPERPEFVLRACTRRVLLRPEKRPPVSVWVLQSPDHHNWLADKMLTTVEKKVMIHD

[4] = biological target: T2, noradrenaline α2C receptors (Homo sapiens, UniProt P18825)
T2 sequence (P18825 1-462): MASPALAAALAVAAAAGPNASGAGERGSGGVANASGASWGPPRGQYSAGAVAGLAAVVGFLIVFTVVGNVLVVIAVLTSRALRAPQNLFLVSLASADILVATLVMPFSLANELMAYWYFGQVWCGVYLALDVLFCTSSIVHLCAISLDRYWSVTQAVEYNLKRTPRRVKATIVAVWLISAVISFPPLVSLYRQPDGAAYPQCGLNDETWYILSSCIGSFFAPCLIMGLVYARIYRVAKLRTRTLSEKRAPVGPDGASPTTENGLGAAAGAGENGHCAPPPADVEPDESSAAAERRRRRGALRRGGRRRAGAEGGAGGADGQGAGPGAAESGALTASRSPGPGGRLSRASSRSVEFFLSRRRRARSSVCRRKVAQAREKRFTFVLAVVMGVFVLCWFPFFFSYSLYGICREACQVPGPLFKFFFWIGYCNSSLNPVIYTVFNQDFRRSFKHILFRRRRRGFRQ

histamine H1 receptors = histamine H1 receptors (Homo sapiens, UniProt P35367)
histamine H1 receptors, sequence (P35367 whole entry): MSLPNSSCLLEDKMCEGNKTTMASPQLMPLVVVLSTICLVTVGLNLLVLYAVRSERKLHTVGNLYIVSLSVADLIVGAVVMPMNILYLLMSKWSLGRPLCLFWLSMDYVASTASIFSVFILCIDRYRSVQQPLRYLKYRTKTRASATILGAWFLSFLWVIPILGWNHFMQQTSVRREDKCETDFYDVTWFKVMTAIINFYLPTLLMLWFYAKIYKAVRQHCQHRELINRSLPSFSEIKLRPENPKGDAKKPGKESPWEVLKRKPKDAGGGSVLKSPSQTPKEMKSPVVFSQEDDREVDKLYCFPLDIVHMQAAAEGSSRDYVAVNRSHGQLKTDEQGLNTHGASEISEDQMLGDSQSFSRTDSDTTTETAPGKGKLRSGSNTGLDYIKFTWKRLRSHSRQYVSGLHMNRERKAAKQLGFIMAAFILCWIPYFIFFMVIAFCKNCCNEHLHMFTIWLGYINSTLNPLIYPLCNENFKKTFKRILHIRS

muscarinic M1 receptors = biological target: T3, muscarinic M1 receptors (Homo sapiens, UniProt P11229)
T3 sequence (P11229 1-460): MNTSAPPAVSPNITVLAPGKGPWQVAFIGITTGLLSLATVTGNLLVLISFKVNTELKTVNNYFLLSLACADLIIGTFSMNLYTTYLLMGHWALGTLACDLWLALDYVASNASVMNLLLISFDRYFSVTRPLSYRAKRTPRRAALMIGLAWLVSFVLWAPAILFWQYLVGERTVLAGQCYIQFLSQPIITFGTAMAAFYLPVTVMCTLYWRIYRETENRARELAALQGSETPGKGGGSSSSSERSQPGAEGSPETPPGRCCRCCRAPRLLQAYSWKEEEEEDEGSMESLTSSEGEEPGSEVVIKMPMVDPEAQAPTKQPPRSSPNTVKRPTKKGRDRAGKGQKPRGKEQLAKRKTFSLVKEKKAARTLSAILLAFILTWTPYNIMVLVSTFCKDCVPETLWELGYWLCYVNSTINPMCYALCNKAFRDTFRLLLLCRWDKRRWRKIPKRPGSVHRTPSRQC

dopamine D2 receptors, sequence (P14416 whole entry): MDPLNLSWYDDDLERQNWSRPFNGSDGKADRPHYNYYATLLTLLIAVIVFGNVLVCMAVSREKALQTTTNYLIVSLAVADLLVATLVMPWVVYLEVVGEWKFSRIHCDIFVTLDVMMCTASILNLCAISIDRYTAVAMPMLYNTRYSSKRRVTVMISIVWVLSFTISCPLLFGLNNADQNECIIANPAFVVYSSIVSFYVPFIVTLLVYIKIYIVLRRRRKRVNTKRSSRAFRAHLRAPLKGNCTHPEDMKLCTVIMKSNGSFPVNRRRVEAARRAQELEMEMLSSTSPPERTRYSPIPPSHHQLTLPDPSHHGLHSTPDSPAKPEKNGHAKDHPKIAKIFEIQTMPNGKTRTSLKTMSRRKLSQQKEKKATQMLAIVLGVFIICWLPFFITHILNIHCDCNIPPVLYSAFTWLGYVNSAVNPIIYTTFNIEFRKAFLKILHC

O=C1[C@@H]2[C@H]3CC[C@H](C3)[C@@H]2C(=O)N1C[C@@H]1CCCC[C@H]1CN1CCN(c2nsc3ccccc23)CC1 [Lurasidone, (3aR, 4S, 7R, 7aS)-2-{(1R, 2R)-2-[4-(1,2-benzisothiazol-3-yl)piperazin-1-ylmethyl]cyclo-hexylmethyl}hexahydro-4,7-methano-2H-isoindole-1,3-dione]
minimal to no affinity: affinity for histamine H1 receptors (histamine H1 receptors) | affinity for muscarinic M1 receptors (muscarinic M1 receptors)
high affinity: affinity for dopamine D2 receptors (dopamine D2 receptors) | affinity for serotonin 5-HT1A receptors [1] | affinity for serotonin 5-HT2A receptors [2] | affinity for serotonin 5-HT7 receptors [3] | affinity for noradrenaline α2C receptors [4]
